The term IC50 denotes the concentration that gives 50% inhibition. A high value points to a need for much substance.

The test system of the first assay is MH60. Put plainly: Compound was tested for inhibition of interleukin-6-dependent MH60 cell growth; Very weak inhibition. Type of assay: functional, cell-based.
Details: not given
Regarding `Cc1cc(O)c2c(c1)[C@]1(C)CC(=O)[C@@]3(C)CCCC[C@@]3(C)[C@@]1(C)C(=O)[C@@H]2C`, the IC50 result was “Very weak inhibition”.
On the same count and under the same terms, next, `C[C@H]1C[C@@H]2CN3C45CCC[C@](C)(CC(=O)O4)[C@]5(C)CC[C@@]3(C1)O2`: “Very weak inhibition”.

For another assay, the system named is MH60. Put plainly: Compound was tested for inhibition of interleukin-6-dependent MH60 cell growth. The conditions noted are these: Mus musculus. The assay is classed as functional, cell-based.
For the molecule `CC1=CC(=O)[C@H]2CC(=O)[C@H]3[C@@](C)(CC4=[N+]5C[C@H]6C[C@H](C)C[C@]5(CC[C@@]4(C)[C@@]3(C)CC(=O)O)O6)[C@@H]2C1`, the IC50 came to 13 µM.
Still for that read-out and setting: next, `CC1=CC(=O)[C@@H]2[C@@H](C1)[C@]1(C)CC3=[N+]4C[C@H]5C[C@H](C)C[C@]4(CC[C@@]3(C)[C@@](C)(CC(=O)O)[C@H]1C(=O)[C@@H]2C)O5`: 26 µM; `C[C@H]1C[C@@H]2C[N+]3=C4CCC[C@](C)(CC(=O)O)[C@]4(C)CC[C@@]3(C1)O2`: roughly 70 µM.
Take `CCCCC1=C(C)C(=O)[C@](C)(CN2c3ccccc3[C@]3(O)CCOC23)C1=O` (stereo partly specified) [MADINDOLINE A]: 8 µM corresponded to half-maximal inhibition (IC50).

These data come from ChEMBL document CHEMBL1146748, “Synthesis and preliminary biological evaluation of truncated zoanthenol analogues” (Bioorg Med Chem Lett, 2004).
